Measurements from ChEMBL document CHEMBL1201862, “PubChem BioAssay data set” (2004).
The source made the active and inactive calls.

Experiments:
[1] = inhibition of ADAM10 peptide cleavage – biochemical, FRET peptide substrate, recombinant human ADAM10, selectivity assay for ADAM17 exosite inhibitor project, dose response (AID 743259);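 note: ADAM10 enzyme cleaving a FRET peptide substrate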
[2] = target: Disintegrin and metalloproteinase domain-containing protein 17 (Homo sapiens, UniProt P78536); assay: exosite inhibitors of ADAM17, dose response, biochemical (AID 743260)
[3] = target: T1, Sentrin-specific protease 6 (Homo sapiens, UniProt Q9GZR1); format: functional;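 note: Luminescence-based dose-response confirmatory assay of SENP6 inhibition, following up an ultra-high-throughput screen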
T1 sequence (Q9GZR1 whole entry): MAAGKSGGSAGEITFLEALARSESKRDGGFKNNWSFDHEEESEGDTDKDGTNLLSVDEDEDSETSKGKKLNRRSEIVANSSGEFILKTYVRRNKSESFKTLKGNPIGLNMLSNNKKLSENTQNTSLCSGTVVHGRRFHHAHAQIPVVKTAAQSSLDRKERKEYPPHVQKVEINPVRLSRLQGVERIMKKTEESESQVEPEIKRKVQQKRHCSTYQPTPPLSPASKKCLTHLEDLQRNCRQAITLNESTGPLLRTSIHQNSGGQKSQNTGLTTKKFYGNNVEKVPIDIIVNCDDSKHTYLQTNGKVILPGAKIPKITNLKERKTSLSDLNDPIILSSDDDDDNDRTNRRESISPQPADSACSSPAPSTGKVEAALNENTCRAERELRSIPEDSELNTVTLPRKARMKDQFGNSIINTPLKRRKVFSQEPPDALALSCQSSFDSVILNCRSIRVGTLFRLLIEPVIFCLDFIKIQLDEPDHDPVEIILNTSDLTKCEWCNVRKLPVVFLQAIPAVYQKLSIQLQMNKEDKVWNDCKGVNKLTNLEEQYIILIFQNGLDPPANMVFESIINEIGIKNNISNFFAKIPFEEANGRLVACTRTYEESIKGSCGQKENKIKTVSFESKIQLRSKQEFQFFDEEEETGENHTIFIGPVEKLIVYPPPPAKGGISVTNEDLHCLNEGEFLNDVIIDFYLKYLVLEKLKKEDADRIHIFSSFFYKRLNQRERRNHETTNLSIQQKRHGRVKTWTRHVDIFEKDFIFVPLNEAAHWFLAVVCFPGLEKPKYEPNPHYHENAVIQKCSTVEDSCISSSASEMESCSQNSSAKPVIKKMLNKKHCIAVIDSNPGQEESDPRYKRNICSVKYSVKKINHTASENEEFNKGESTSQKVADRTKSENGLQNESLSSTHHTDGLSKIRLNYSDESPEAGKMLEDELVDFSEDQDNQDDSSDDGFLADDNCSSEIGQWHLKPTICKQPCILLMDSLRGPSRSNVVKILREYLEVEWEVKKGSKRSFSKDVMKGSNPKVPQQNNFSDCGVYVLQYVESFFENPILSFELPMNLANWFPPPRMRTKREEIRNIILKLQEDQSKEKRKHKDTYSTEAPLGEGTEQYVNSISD

[4] = target: T2, Oxysterols receptor LXR-beta (Homo sapiens, UniProt P55055); format: functional, cell-based;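 note: Cell-based luminescence dose-response assay of agonist activity at LXR, run as a confirmatory counterscreen to a daf-12 agonist screen; agonist potency from rising luciferase signal of a Gal4-LXR reporter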
T2 sequence (P55055 whole entry): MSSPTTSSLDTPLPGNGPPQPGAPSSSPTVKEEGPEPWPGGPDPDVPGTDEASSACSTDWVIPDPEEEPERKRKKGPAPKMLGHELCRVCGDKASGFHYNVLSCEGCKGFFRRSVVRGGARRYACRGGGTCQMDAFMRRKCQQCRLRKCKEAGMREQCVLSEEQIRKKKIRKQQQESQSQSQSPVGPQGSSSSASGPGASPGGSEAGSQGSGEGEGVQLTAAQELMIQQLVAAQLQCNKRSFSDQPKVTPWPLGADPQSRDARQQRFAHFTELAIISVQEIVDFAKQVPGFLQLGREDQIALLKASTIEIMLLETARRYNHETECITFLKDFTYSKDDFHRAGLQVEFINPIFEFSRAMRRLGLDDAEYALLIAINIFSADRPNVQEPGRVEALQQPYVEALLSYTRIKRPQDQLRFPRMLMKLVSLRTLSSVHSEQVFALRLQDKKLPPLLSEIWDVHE

[5] = target: T3, Sentrin-specific protease 8 (Homo sapiens, UniProt Q96LD8); format: functional;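 note: luminescence read-out of SENP8 inhibition, dose-response confirmation following an ultra-high-throughput screen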
T3 sequence (Q96LD8 whole entry): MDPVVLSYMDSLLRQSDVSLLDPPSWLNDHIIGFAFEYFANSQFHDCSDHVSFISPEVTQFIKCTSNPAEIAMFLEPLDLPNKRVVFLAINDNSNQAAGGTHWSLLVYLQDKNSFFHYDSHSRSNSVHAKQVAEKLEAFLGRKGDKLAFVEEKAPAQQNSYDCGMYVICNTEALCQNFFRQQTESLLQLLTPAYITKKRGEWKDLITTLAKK

[6] = cells
[7] = target: T4, Sentrin-specific protease 7 (Homo sapiens, UniProt Q9BQF6); format: functional;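 note: Luminescence-based dose-response confirmation of ultra-high-throughput screening hits, measuring inhibition of SENP7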
T4 sequence (Q9BQF6 whole entry): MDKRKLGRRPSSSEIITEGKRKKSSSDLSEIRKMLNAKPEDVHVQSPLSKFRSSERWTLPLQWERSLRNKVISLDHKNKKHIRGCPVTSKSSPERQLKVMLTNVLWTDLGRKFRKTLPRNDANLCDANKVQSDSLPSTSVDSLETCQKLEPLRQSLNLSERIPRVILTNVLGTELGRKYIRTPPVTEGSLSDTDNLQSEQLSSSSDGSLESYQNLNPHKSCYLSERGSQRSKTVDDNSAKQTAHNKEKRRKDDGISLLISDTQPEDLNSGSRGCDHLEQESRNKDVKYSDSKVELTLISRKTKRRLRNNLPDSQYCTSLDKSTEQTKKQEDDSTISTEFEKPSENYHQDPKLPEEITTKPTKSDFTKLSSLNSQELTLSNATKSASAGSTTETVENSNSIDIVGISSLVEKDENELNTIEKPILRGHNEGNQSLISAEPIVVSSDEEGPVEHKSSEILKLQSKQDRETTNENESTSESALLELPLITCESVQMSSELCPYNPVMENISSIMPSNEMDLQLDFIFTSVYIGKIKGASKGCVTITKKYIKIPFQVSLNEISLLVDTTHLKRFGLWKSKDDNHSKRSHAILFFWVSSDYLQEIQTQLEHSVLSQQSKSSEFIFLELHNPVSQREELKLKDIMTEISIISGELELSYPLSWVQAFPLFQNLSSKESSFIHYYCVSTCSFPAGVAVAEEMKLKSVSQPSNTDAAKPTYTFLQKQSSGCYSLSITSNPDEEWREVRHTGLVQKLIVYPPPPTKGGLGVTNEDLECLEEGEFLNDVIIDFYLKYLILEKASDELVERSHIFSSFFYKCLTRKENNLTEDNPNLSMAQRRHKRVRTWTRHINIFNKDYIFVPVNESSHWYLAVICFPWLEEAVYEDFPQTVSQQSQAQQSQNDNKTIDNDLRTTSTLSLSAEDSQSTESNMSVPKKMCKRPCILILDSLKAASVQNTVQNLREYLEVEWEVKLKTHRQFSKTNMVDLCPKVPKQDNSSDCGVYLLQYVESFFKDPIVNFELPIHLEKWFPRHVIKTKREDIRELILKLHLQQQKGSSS

[8] = target: T5, Caspase-3 (Homo sapiens, UniProt P42574); format: functional;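 note: Dose-response selectivity test against caspase-3 for candidate inhibitors of sentrin-specific proteases (SENPs)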
T5 sequence (P42574 whole entry): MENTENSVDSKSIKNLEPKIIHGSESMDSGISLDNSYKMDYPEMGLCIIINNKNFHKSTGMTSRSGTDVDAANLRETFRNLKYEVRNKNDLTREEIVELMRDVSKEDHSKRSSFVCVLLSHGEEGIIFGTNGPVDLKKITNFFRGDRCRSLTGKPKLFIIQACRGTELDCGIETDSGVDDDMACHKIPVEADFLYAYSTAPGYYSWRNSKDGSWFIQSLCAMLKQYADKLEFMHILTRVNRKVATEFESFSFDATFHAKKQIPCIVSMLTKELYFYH

[9] = target: T2, Oxysterols receptor LXR-beta; assay: LXR agonists, Gal4 luciferase reporter, dose response, counter-screen for ssDAF-12 agonist project, cell-based, luminescence, HEK293, S. stercoralis campaign (AID 720737); format: functional; conditions: read-out: IC50 (the source's name)
[10] = Luminescence-based cell-based high throughput dose response assay to identify activators of the DAF-12 from the parasite S. stercoralis (ssDAF-12).; format: functional
[11] = blockade of melanocortin 4 receptor signaling – cell-based, plate reader, cherry pick, counter-screen for LGR2 antagonist project, dose response (AID 743444); format: functional;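 note: transfected HEK 293 cells stimulated with alpha-MSH peptide; potency of inhibitors of the alpha-MSH evoked signal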
[12] = A549 cell cytotoxicity, dose response, cytotoxicity control, plate reader, cherry-pick, antagonist series (AID 743412); format: functional, cell-based
[13] = blockers of bursicon-stimulated LGR2 cAMP reporter – cell-based, HEK293, CRE-luciferase reporter, cherry pick, set 2, dose response (AID 743343); format: functional;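 note: transfected cells were stimulated with diluted bursicon conditioned medium after compound addition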
[14] = target: T6, Heat shock factor protein 1 (Mus musculus, UniProt P38532); assay: enhancement of HSF1-driven luciferase signal – cell-based, NIH3T3, luminescence, dose retest, confirmation (AID 435004); format: functional;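 note: stress induced by proteasome inhibitor MG132 added 30 min after compound; luciferase reporter driven by HSF1 response element in NIH3T3 cells; actives raise luminescence as potentiators of the MG132 stress response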
T6 sequence (P38532 whole entry): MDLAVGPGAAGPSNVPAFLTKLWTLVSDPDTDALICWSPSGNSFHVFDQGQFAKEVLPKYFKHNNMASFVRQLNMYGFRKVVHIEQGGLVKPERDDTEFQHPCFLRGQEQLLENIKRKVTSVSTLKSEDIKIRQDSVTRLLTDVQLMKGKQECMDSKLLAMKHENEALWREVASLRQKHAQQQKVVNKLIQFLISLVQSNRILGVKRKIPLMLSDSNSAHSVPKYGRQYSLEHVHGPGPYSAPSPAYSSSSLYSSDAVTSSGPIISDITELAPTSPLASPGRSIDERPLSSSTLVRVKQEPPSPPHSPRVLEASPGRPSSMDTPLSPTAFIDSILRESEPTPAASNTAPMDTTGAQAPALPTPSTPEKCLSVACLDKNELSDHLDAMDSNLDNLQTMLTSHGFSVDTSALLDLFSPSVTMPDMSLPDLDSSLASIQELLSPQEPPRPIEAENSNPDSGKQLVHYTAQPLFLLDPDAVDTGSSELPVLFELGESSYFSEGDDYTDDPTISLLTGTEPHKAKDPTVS

[15] = target: T7, Caspase-6 (Homo sapiens, UniProt P55212); assay: inhibition of CASP6 peptide cleavage – biochemical, VEID-R110 fluorescence, cherry-pick, dose response (AID 720632)
T7 sequence (P55212 whole entry): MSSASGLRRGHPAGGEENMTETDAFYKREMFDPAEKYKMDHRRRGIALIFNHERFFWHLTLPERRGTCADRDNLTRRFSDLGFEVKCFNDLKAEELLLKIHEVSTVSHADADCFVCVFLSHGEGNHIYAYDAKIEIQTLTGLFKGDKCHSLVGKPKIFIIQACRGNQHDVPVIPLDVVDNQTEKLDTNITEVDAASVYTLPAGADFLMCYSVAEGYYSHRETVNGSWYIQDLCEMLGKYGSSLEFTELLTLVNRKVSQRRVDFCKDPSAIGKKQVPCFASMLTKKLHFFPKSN

[16] = tested on: Streptococcus sp. 'group A'; assay: Streptococcus pyogenes SK(-)GAS viability under kanamycin – luminescence, BacTiterGlo, confirmation, counter-screen for streptokinase expression inhibitor project, dose response (AID 1900); format: functional, organism-based
[17] = tested on: Streptococcus; assay: GAS UMAA2166 growth inhibition – luminescence, BacTiterGlo, counter-screen for streptokinase expression inhibitor project, dose response (AID 1915); format: functional, organism-based;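 note: potency for reduction of bacterial viability or growth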
[18] = HGIII-sPLA2 enzyme inhibition potency – biochemical, QFRET, IC50, dose response (AID 743457);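 note: green fluorescence rise as the enzyme cleaves BODIPY PC-A2 in liposomes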
[19] = target: T8, Streptokinase A (Streptococcus pyogenes serotype M1, UniProt P10520); assay: viability-normalized secreted streptokinase activity reduction – plasminogen activation absorbance, OD405, dose response (AID 1914); format: functional, Streptococcus pyogenes M1 GAS;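 note: secreted streptokinase activity via plasminogen activation per viability signal from cell pellet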
T8 sequence (P10520 whole entry): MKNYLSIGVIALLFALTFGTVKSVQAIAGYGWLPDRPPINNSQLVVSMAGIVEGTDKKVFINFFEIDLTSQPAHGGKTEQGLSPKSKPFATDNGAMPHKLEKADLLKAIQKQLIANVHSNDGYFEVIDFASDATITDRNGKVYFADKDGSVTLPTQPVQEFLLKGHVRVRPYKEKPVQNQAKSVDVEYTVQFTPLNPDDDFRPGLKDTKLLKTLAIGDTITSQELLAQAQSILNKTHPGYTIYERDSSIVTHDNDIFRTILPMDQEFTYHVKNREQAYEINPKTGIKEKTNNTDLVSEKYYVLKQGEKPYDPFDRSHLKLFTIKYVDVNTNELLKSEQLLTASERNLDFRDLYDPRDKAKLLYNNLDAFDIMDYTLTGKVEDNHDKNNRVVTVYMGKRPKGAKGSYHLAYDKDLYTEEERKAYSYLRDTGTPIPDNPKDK

Disintegrin and metalloproteinase domain-containing protein 17, sequence (P78536 whole entry, the tested form may be a part): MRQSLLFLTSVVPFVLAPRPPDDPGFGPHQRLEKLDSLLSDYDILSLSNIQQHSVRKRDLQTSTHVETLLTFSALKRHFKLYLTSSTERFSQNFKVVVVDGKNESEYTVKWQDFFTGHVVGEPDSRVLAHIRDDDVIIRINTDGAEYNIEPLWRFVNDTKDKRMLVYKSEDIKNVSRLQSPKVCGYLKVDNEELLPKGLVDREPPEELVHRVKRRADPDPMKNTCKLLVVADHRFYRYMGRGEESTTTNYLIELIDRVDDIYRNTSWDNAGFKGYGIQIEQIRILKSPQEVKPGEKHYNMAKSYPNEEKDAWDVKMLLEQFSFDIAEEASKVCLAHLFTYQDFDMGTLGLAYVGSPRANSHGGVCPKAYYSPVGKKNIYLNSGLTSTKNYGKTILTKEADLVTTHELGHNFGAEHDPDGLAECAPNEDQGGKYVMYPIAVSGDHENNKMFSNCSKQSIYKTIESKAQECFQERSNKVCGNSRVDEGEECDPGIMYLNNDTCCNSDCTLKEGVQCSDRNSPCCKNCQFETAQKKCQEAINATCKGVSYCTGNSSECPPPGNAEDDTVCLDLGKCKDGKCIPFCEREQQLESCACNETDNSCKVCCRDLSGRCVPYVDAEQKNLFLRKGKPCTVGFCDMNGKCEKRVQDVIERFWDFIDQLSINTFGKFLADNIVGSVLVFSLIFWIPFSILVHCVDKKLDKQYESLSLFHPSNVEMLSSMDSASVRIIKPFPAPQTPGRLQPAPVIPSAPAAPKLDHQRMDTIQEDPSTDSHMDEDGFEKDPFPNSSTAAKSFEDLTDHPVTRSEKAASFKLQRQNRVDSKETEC

Cc1nc2ccc(S(=O)(=O)NCC(=O)NCc3ccc4c(c3)OCO4)cc2s1
IC50 [1]: > 69.5 µM (inactive)
IC50 [2]: > 69.5 µM (inactive)

Cc1ccc(-c2cc(-c3ccccc3)no2)cc1
IC50 [3]: 18.6 µM (active)
EC50 [4]: > 67.5 µM (inactive)
IC50 [5]: 23.7 µM (active)
EC50 [6]: > 67.5 µM (inactive)
IC50 [7]: 14.3 µM (active)
IC50 [8]: 21.7 µM (active)

Cc1ccc(C(=O)Nc2ccc3c(c2)OCO3)cc1
EC50 [9]: > 67.5 µM (inactive)
IC50 [10]: > 67.5 µM (inactive)

Cc1ccccc1-c1ccc([C@H]2[C@@H](CO)N3CCCCN(S(=O)(=O)c4ccc(F)cc4)C[C@@H]23)cc1
AC50 [11]: 8.3 µM (active)
AC50 [12]: 19.8 µM (active)
AC50 [13]: 9.92 µM (active)

O=C(CN1C(=O)c2ccccc2S1(=O)=O)Nc1cc(S(=O)(=O)N2CCCCC2)ccc1Cl
IC50 [1]: > 69.5 µM (inactive)
IC50 [2]: > 69.5 µM (inactive)

Nc1c(Br)cc2oc(-c3ccccc3)nc2c1Br
EC50 [4]: > 67.5 µM (inactive)
EC50 [6]: > 67.5 µM (inactive)

O=C(Nc1ccccn1)c1ccc2ccccc2n1
EC50 [14]: > 260 µM (inactive)
EC50 [9]: > 67.5 µM (inactive)
IC50 [10]: > 67.5 µM (inactive)

CCc1nnc(N/N=C/c2cc(C)c(C)cc2C)n1N
AC50 [15]: 39.8 µM (active)

CNCC(O)Cn1c2c(c3ccccc31)CCCC2 (stereo not given)
EC50 [9]: > 67.6 µM (inactive)
IC50 [10]: > 67.6 µM (inactive)

COc1cc(-c2noc(C)c2/C=C/c2ccc(C(=O)O)cc2)cc(OC)c1OC
AC50 [15]: 23.2 µM (active)

CC(C)(C)[S+]([O-])N1Cc2cc(C(=O)NCC(F)(F)F)nc(-c3cccc(-c4cccc(F)c4)c3)c2[C@H]1CCO (stereo not given in full)
IC50 [1]: > 7.72 µM (active)
IC50 [2]: > 69.5 µM (inactive)

NNC(=O)/C(=N/Nc1ccccc1)S(=O)(=O)c1ccc(Cl)cc1
EC50 [16]: 6.91 µM (active)
EC50 [17]: > 150 µM (not active)
IC50 [18]: 47.3 µM (inactive)
EC50 [19]: > 150 µM (not active)
